Source: patent US4761483A, “Chloro-substituted ketone imidazole derivatives” (G. D. Searle & Co., priority 1985, dated 1988)
Several values for one entry are separate records, joined by “and”; a condition that tells them apart may be missing. Equal values may be shown once. Read-outs that look alike come from different tables or passages of the source.

Columns and labels:
B. fragilis WS-1 = assay: anti-anaerobic activity, MIC/MBC in 96 well microtitre plates, strain E; format: cell-based; settings: Bacteroides fragilis, 99.9% reduction in viable count after 48 hours
[1] = test system: Peptostreptococcus anaerobicus ATCC 27337; assay: anti-anaerobic activity, MIC (procedures of Example 13); format: cell-based; settings: Peptostreptococcus, ATCC27337
[2] = test system: Peptococcus prevotti ATCC 9321; assay: as above; format: cell-based
[3] = test system: Propionibacterium acnes NCTC 737; assay: as above; format: cell-based; settings: Cutibacterium acnes, NCTC737, procedures of Example 13 (there mg/L)
B. fragilis NCTC 10581 = assay: anti-anaerobic activity, MIC/MBC in 96 well microtitre plates, strain A; format: cell-based, Bacteroides fragilis; settings: for MBC: read-out: MBC (Minimum Bactericidal Concentration)
[4] = test system: Fusobacterium necrophorum ATCC 11295; assay: anti-anaerobic activity, MIC (procedures of Example 13); format: cell-based; settings: ATCC11295, procedures of Example 13 (there mg/L)
B. fragilis NCTC 9344 = assay: anti-anaerobic activity, MIC/MBC in 96 well microtitre plates, strain C; format: cell-based, Bacteroides fragilis; settings: for MBC: read-out: MBC (Minimum Bactericidal Concentration)
[5] = test system: Clostridium perfringens NCTC 8237; assay: microbe, parasite or virus in culture; format: cell-based; settings: NCTC8237
[6] = test system: Clostridium perfringens NCTC 523; assay: microbe, parasite or virus in culture; format: cell-based; settings: NCTC523
B. fragilis NCTC 9343 = assay: anti-anaerobic activity, MIC/MBC in 96 well microtitre plates, strain B; format: cell-based, Bacteroides fragilis; settings: for MBC: 99.9% reduction in viable count after 48 hours
[7] = test system: B. fragilis MZ-R ATCC 11295; assay: anti-anaerobic activity, MIC/MBC in 96 well microtitre plates, strain D; format: cell-based, Bacteroides fragilis
Protocol: The screening panel utilized in the Example consisted of 5 strains of Bacteroides fragilis. All assays were carried out in 96 well microtitre plates. If an isolate was obtained from either a culture collection or clinical source, the isolate was immediately innoculated into Wilkens-Chalgren broth (Oxoid) and incubated at 37° C. in an anaerobic chamber in an atmosphere of 85% nitrogen, 10% carbon dioxide, and 5% hydrogen for 48 hours. At the end of this time, the viable count was about […] broth. A 1 ml aliquot of each culture was placed in an ampoule and quick frozen in acetone-dry ice mixture and stored in liquid nitrogen. When an inoculum was utilized in an assay, one of the ampoules was thawed and diluted with fresh broth to yield a suspension having a count of 5×10^5 organisms/ml. A 100 μl aliquot of the suspension was inoculated into each well of the microtitre plate. A 2 mg sample of the test compound wa dissolved in 0.2 ml of a suitable solvent such as dimethylsulfoxide, polyethylene glycol 200 or methanol. The solution was then diluted with 4.8 ml of water to yield a solution having a concentration of 400 mg/L. Doubling dilutions of this stock were prepared to give a range of concentrations from 1.6-200 mg/L. 100 μl of each concentration were then placed in the wells of the microtitre plate containing the inoculum, to produce a final concentration range of 0.8-100 mg/l. Metronidazole was employed as a positive control and a solvent/water mixture was employed as a negative control. After addition of the test solution the final inoculum level was 10^5 cells/ml. The plates were incubated for 48 hours at 37° C. in the anaerobic chamber. The Minimum Inhibitory Concentration (MIC) was read visually. The MIC is defined as the lowest concentration at which there is no detectable growth. The Minimum Bactericidal Concentration (MBC) was determined by taking a 50 μl aliquot from each well and placing it in fresh medium. […] The strains of Bacteroides fragilis utilized in the above procedure are identified by letter in accordance with the following legend: |D B. fragilis MZ-R ATCC 11295

[8] = test system: Propionibacterium acnes NCTC 7337; assay: anti-anaerobic activity, MIC (procedures of Example 13); format: cell-based; settings: Cutibacterium acnes, NCTC7337, procedures of Example 13 (there mg/L)
[9] = test system: Peptococcus magnus ATCC 29328; assay: as above; format: cell-based; settings: Finegoldia magna, ATCC29328
[10] = test system: Campylobacter fetus ATCC 29428; assay: as above; format: cell-based; settings: ATCC29428, procedures of Example 13 (there mg/L)

Cc1ncc([N+](=O)[O-])n1CCO [Metronidazole, reference compound]
0.8 mg/L: MIC [1] | MBC (B. fragilis NCTC 10581; Bacteroides fragilis, NCTC10581, 48 h, strain A, 99.9% reduction in viable count after 48 hours) | MIC (B. fragilis NCTC 10581; Bacteroides fragilis, NCTC10581, 48 h, strain A, 48 hours at 37° C., anaerobic chamber, 10^5 cells/ml, read-out: MIC (Minimum Inhibitory Concentration)) | MBC (B. fragilis NCTC 9344; Bacteroides fragilis, NCTC9344, 48 h, strain C, 99.9% reduction in viable count after 48 hours) | MIC (B. fragilis NCTC 9344; Bacteroides fragilis, NCTC9344, 48 h, strain C, 48 hours at 37° C., anaerobic chamber, 10^5 cells/ml, read-out: MIC (Minimum Inhibitory Concentration)) | MIC [5] | MIC [6] | MIC (B. fragilis NCTC 9343; Bacteroides fragilis, NCTC9343, 48 h, strain B, 48 hours at 37° C., anaerobic chamber, 10^5 cells/ml, read-out: MIC (Minimum Inhibitory Concentration)) | MBC (B. fragilis NCTC 9343; Bacteroides fragilis, NCTC9343, strain B, read-out: MBC (Minimum Bactericidal Concentration)) | MIC [9]
1.2 mg/L and 0.6 mg/L: MIC (Minimum Inhibitory Concentration) (B. fragilis NCTC 9343; strain B, 48 hours at 37° C., anaerobic chamber, 10^5 cells/ml)
0.6 mg/L and 1.2 mg/L: MIC (Minimum Inhibitory Concentration) (B. fragilis NCTC 9344; strain C, 48 hours at 37° C., anaerobic chamber, 10^5 cells/ml)
> 100 mg/L: MIC [3] | MIC [8] | MIC [10]
0.6 mg/L: MBC (Minimum Bactericidal Concentration) (B. fragilis NCTC 10581; strain A, 99.9% reduction in viable count after 48 hours) | MIC (Minimum Inhibitory Concentration) (B. fragilis NCTC 10581; strain A, 48 hours at 37° C., anaerobic chamber, 10^5 cells/ml) | MBC (Minimum Bactericidal Concentration) (B. fragilis NCTC 9344; strain C, 99.9% reduction in viable count after 48 hours)
6.2 mg/L: MIC [4] | MBC ([7]; Bacteroides fragilis, ATCC11295, 48 h, 99.9% reduction in viable count after 48 hours, read-out: MBC (Minimum Bactericidal Concentration)) | MIC ([7]; Bacteroides fragilis, ATCC11295, 48 h, 48 hours at 37° C., anaerobic chamber, 10^5 cells/ml, read-out: MIC (Minimum Inhibitory Concentration))
1.5 mg/L: MBC (B. fragilis WS-1; WS1, strain E, read-out: MBC (Minimum Bactericidal Concentration)) | MIC [2]
1.2 mg/L: MBC (B. fragilis WS-1; WS1, 48 h, read-out: MBC (Minimum Bactericidal Concentration), strain E) | MBC (B. fragilis NCTC 10581; Bacteroides fragilis, NCTC10581, 48 h) | MBC (B. fragilis NCTC 9344; Bacteroides fragilis, NCTC9344, 48 h) | MBC (B. fragilis NCTC 9343; Bacteroides fragilis, NCTC9343, 48 h, read-out: MBC (Minimum Bactericidal Concentration), strain B)
10.0 mg/L: MBC (Minimum Bactericidal Concentration) ([7]; 99.9% reduction in viable count after 48 hours) | MIC (Minimum Inhibitory Concentration) ([7]; 48 hours at 37° C., anaerobic chamber, 10^5 cells/ml)
